Results published in ChEMBL document CHEMBL4130508, “Structural Sequencing of Oligopeptides Aided by 1H Iterative Full-Spin Analysis” (2017).
Values after ≈ are worked out from the molar mass of the structure shown. Numbered stars: 1 amine (or outer) side, 2 acyl side, 3 side chain; on linkers, the order of the positions; unused ones are H or OH. Bridge positions count the residues as written; N and C are the ends. Square brackets hold non-standard residues; d marks the D form. Peptide text beside a SMILES is read from it. * marks the point of attachment. Phe(3R-OH) = O=C([C@@H](N[*:1])[C@H](O[*:3])c1ccccc1)[*:2]; NMeTrp(4-OMe) = CN[C@@H](Cc1c[nH]c2cccc(OC)c12)C(=O)O; NMeaIle = CC[C@@H](C)[C@H](NC)C(=O)O; NMe2Val = CC(C)[C@@H](C(=O)*)N(C)C; NMeT = CN[C@H](C(=O)O)[C@@H](C)O; NMeL = CN[C@@H](CC(C)C)C(=O)O; NMeV = CN[C@H](C(=O)O)C(C)C

Tested on: Mycobacterium tuberculosis
Test: Antimycobacterial activity against Mycobacterium tuberculosis H37Rv ATCC 27294 by Alamar blue assay
Format: functional

Row | SMILES | MIC [µg/mL]
1 | CC[C@@H](C)[C@@H](C(=O)N[C@@H]1C(=O)N(C)[C@@H]([C@@H](C)O)C(=O)N[C@@H](C(C)C)C(=O)N(C)[C@@H](CC(C)C)C(=O)N[C@@H](C(C)C)C(=O)N(C)[C@@H](C(C)C)C(=O)N(C)[C@@H](Cc2c[nH]c3cccc(OC)c23)C(=O)N[C@@H](C(C)C)C(=O)N[C@@H]([C@H](O)c2ccccc2)C(=O)N[C@@H]([C@@H](C)CC)C(=O)O[C@@H]1C)N(C)C(=O)[C@@H](NC(=O)[C@H](C(C)C)N(C)C)C(C)C | 0.26 (≈ 0.161 µM)
2 | CC[C@@H](C)[C@@H](C(=O)N[C@@H]1C(=O)N(C)[C@@H]([C@@H](C)O)C(=O)N[C@@H]([C@@H](C)CC)C(=O)N(C)[C@@H](CC(C)C)C(=O)N[C@@H](C(C)C)C(=O)N(C)[C@@H](C(C)C)C(=O)N(C)[C@@H](Cc2c[nH]c3cccc(OC)c23)C(=O)N[C@@H](C(C)C)C(=O)N[C@@H]([C@H](O)c2ccccc2)C(=O)N[C@@H](C(C)C)C(=O)O[C@@H]1C)N(C)C(=O)[C@@H](NC(=O)[C@H](C(C)C)N(C)C)C(C)C | 0.26 (≈ 0.161 µM)
3 | CC[C@@H](C)[C@@H](C(=O)N[C@@H]1C(=O)N(C)[C@@H]([C@@H](C)O)C(=O)N[C@@H](C(C)C)C(=O)N(C)[C@@H](CC(C)C)C(=O)N[C@@H](C(C)C)C(=O)N(C)[C@@H](C(C)C)C(=O)N(C)[C@@H](Cc2c[nH]c3cccc(OC)c23)C(=O)N[C@@H]([C@@H](C)CC)C(=O)N[C@@H]([C@H](O)c2ccccc2)C(=O)N[C@@H](C(C)C)C(=O)O[C@@H]1C)N(C)C(=O)[C@@H](NC(=O)[C@H](C(C)C)N(C)C)C(C)C | 0.26 (≈ 0.161 µM)
4 | CC[C@@H](C)[C@@H](C(=O)N[C@@H]1C(=O)N(C)[C@@H]([C@@H](C)O)C(=O)N[C@@H](C(C)C)C(=O)N(C)[C@@H](CC(C)C)C(=O)N[C@@H](C(C)C)C(=O)N(C)[C@@H](C(C)C)C(=O)N(C)[C@@H](Cc2c[nH]c3cccc(OC)c23)C(=O)N[C@@H](C(C)C)C(=O)N[C@@H](Cc2ccccc2)C(=O)N[C@@H](C(C)C)C(=O)O[C@@H]1C)N(C)C(=O)[C@@H](NC(=O)[C@H](C(C)C)N(C)C)C(C)C | 0.55 (≈ 0.347 µM)
5 | COc1cccc2[nH]cc(C[C@H]3C(=O)N[C@@H](C(C)C)C(=O)N[C@@H](Cc4ccccc4)C(=O)N[C@@H](C(C)C)C(=O)O[C@H](C)[C@H](NC(=O)[C@H](C(C)C)N(C)C(=O)[C@@H](NC(=O)[C@H](C(C)C)N(C)C)C(C)C)C(=O)N(C)[C@@H]([C@@H](C)O)C(=O)N[C@@H](C(C)C)C(=O)N(C)[C@@H](CC(C)C)C(=O)N[C@@H](C(C)C)C(=O)N(C)[C@@H](C(C)C)C(=O)N3C)c12 (NMe2Val-V[NMeV]T[NMeT]V[NMeL]V[NMeV][NMeTrp(4-OMe)]VFV; ester 3-C) | 0.13 (≈ 0.0828 µM)
6 | COc1cccc2[nH]cc(C[C@H]3C(=O)N[C@@H](C(C)C)C(=O)N[C@@H]([C@H](O)c4ccccc4)C(=O)N[C@@H](C(C)C)C(=O)O[C@H](C)[C@H](NC(=O)[C@H](C(C)C)N(C)C(=O)[C@@H](NC(=O)[C@H](C(C)C)N(C)C)C(C)C)C(=O)N(C)[C@@H]([C@@H](C)O)C(=O)N[C@@H](C(C)C)C(=O)N(C)[C@@H](CC(C)C)C(=O)N[C@@H](C(C)C)C(=O)N(C)[C@@H](C(C)C)C(=O)N3C)c12 (NMe2Val-V[NMeV]T[NMeT]V[NMeL]V[NMeV][NMeTrp(4-OMe)]V[Phe(3R-OH)]V; ester 3-C) | 0.15 (≈ 0.0946 µM)
7 | CC[C@@H](C)[C@@H](C(=O)N[C@@H]1C(=O)N(C)[C@@H]([C@@H](C)O)C(=O)N[C@@H](C(C)C)C(=O)N(C)[C@@H](CC(C)C)C(=O)N[C@@H](C(C)C)C(=O)N(C)[C@@H](C(C)C)C(=O)N(C)[C@@H](Cc2c[nH]c3cccc(OC)c23)C(=O)N[C@@H](C(C)C)C(=O)N[C@@H]([C@H](O)c2ccccc2)C(=O)N[C@@H](C(C)C)C(=O)O[C@@H]1C)N(C)C(=O)[C@@H](NC(=O)[C@H](C(C)C)N(C)C)C(C)C (NMe2Val-V[NMeaIle]T[NMeT]V[NMeL]V[NMeV][NMeTrp(4-OMe)]V[Phe(3R-OH)]V; ester 3-C) | 0.26 (≈ 0.162 µM)
